Measured values from patent publication US12528777B2, “Quinazolinones derivatives for treatment of non-alcoholic fatty liver disease, preparation and use thereof” (Council of Scientific and Industrial Research, priority 2020, dated 2026).

Each molecule was assayed on ATGL (assay: Western blot of ATGL level in HepG2 cells). Details: HepG2 cells, western blot, score.
Type: cell-based
Set-up: key to Increase in ATGL level: + = slight or in insignificant; ++ = Moderate; +++ and ++++ = active; +++ and ++++ = active; +++++ = very active
Experimental: To select the compounds capable of inhibiting the ubiquitination of ATGL by COP1 by targeting the VP motif, confocal microscopy was performed with the provided molecules. If the compound was effective in inhibiting the interaction, there would be a reduction in the number of fat droplets in the cells after treatment. […] With this rationale in mind, HepG2 cells were induced to accumulate lipid droplets after treatment with 250 µM of oleate and 10 μM of the specific compounds were added. The potential of the compounds to bring about a reduction in the number of fat droplets was then checked by comparison with oleate induced cells by counting number of droplets of approximately 20 cells from each treatment and calculating the average number of lipid droplets of each cell. The selected compounds were then subjected to dose dependent treatments and the ones which could maintain its potency to reduce fat droplets at lower doses were then selected for western blot analysis. The compound which could reduce the number of fat droplets in the cells are expected to raise the levels of ATGL since they are likely to deter COP1 from ubiquitinating ATGL. This increase will be visible only in the protein level and gene expression is likely to remain unchanged since ubiquitination is a […] modification. Thus, western blot was performed to check ATGL levels in the cells with the selected molecules.
HepG2 cells were treated with the compounds 9, 10, 11, 17, 18, 23, 24, 115, 123, 127, 139,107, 171, 179, 73, 187, 211, 215, 219, 223, 232, 238, 241, 244, 258, 299, 308, and 333a, (10 μM for initial screening and 50 nM, 100 nM, 200 nM, 500 nM, 1 μM and 5 μM for dose dependent assays) for 24 hours. After removing media from the cells, the wells were washed with 1×PBS twice to remove any remnant media. Cells were then lysed in lysis buffer containing 50 mM Tris-HCl (pH 7.4), 100 mM NaCl, 1 mM EDTA, 1 mM EGTA, 1% Triton X-100 and protease inhibitor cocktail (Millipore, Billierica, MA, USA). Following centrifugation at 20,000 g for 20 minutes, the protein solution was extracted from the cells. Protein was estimated using Bradford assay. Bradford's reagent (BioRad) was diluted in 1:4 ratio in double distilled water. 2 μl of protein sample was added to 100 μl of the reagent and absorbance was measured at 595 nm. […] of protein was diluted in lysis buffer. 1× loading buffer diluted from 5× stock containing 250 mM Tris-HCl (pH 6.8), 10% SDS, 50% glycerol, 0.1% bromophenol Blue and 10% β-mercaptoethanol was added. The protein samples were then heated at 95° C. for 10 minutes, cooled and centrifuged at 12,000 g for 2 minutes prior to loading.
For western blotting, the proteins were resolved in 10% SDS PAGE (discontinuous buffer system). 1× running buffer containing SDS, Tris Base and Glycine was used to run the gel at 80V for approximately 2 hours. Transfer was done using PVDF membrane (Millipore) having pore size of 0.45 μm. 1× transfer buffer containing Tris-Base, Glycine and 20% methanol was used for wet transfer. Transfer was done at 90V for 3 hours. Following transfer, the PVDF membrane containing the proteins were washed in 1×PBST comprising of 1×PBS and 1% Tween 20 (Sigma Aldrich). The membrane was then incubated for 1 hour at room temperature in 5% skim milk powder to block the non-specific sites. Following multiple washes with 1×PBST to wash away any remaining blocking buffer, the required primary antibody (COP1 [Bethyl Laboraties], ATGL [Cell Signalling Technology] or Actin[Cell Signalling Technology]) prepared with 1×PBST, 1% Bovine Serum Albumin and 0.04% Sodium Azide was added to the membrane and incubated overnight at 4° C. The next day, the membrane was again washed multiple times with 1×PBST to remove any unbound primary antibody. The membrane was then incubated with goat anti-rabbit secondary antibody (Genei) for 1 hour at room temperature and washed again for multiple times with 1×PBST. […]

| Compound | Increase in ATGL level |
| --- | --- |
| COCCn1cnc2ccc(NC(=O)Nc3cccc(C(C)=O)c3)c(C3=CCN(C(=O)OC(C)(C)C)CC3)c2c1=O [Compound 59, tert-butyl 4-(6-(3-(3-acetylphenyl)ureido)-3-(2-methoxyethyl)-4-oxo-3,4-dihydroquinazolin-5-yl)-5,6-dihydropyridine-1 (2H)-carboxylate] | + |
| COCCn1cnc2ccc(NC(=O)Nc3cccc(C(C)=O)c3)c(C3CCNCC3)c2c1=O [Compound 62, 1-(3-acetylphenyl)-3-(3-(2-methoxyethyl)-4-oxo-5-(piperidin-4-yl)-3,4-dihydroquinazolin-6-yl)urea] | +++ |
| CC(=O)c1cccc(NC(=O)Nc2ccc3ncn(CCOC(C)C)c(=O)c3c2)c1 [Compound 183, 1-(3-acetylphenyl)-3-(3-(2-isopropoxyethyl)-4-oxo-3,4-dihydroquinazolin-6-yl)urea] | +++ |
| CCC(COC)n1c(C)nc2ccc(NC(=O)Nc3cccc(C(C)=O)c3)cc2c1=O (centres unmarked) [Compound 281, 1-(3-acetylphenyl)-3-(3-(1-methoxybutan-2-yl)-2-methyl-4-oxo-3,4-dihydroquinazolin-6-yl)ureae] | ++ |
| COCCn1cnc2ccc(NC(=O)Nc3cccc(C(C)=O)c3)c(-c3ccc(OC)cc3)c2c1=O [Compound 64, 1-(3-acetylphenyl)-3-(3-(2-methoxyethyl)-5-(4-methoxyphenyl)-4-oxo-3,4-dihydroquinazolin-6-yl)urea] | + |
| COc1ccccc1-n1cnc2ccc(NC(=O)Nc3cccc(C(C)=O)c3)cc2c1=O [Compound 131, 1-(3-acetylphenyl)-3-(3-(2-methoxyphenyl)-4-oxo-3,4-dihydroquinazolin-6-yl)urea] | + |
| COCC(C)n1c(C)nc2ccc(NC(=O)Nc3cccc(C(C)=O)c3)cc2c1=O (centres unmarked) [Compound 285, 1-(3-acetylphenyl)-3-(3-(1-methoxypropan-2-yl)-2-methyl-4-oxo-3,4-dihydroquinazolin-6-yl)urea] | + |
| COCCn1cnc2ccc(NC(=O)Nc3ccc(C(F)(F)F)cc3)cc2c1=O [Compound 38, 1-(3-(2-methoxyethyl)-4-oxo-3,4-dihydroquinazolin-6-yl)-3-(4-(trifluoromethyl)phenyl)urea] | ++ |

Same assay, conditions: fold increase of ATGL by densitometry, as % of 1.6 fold maximum with siCOP1; doses 10-5000 nM; read-out: EC50 (in-vitro)

| Compound | EC50 [nM] |
| --- | --- |
| COCCn1c(-c2cnccn2)nc2ccc(NC(=O)Nc3cccc(C(C)=O)c3)cc2c1=O [Compound 223, 1-(3-acetylphenyl)-3-(3-(2-methoxyethyl)-4-oxo-2-(pyrazin-2-yl)-3,4-dihydroquinazolin-6-yl)urea] | 70.3 |
| COCCn1c(C2CCCC2)nc2ccc(NC(=O)Nc3cccc(C(C)=O)c3)cc2c1=O [Compound 127, 1-(3-acetylphenyl)-3-(2-cyclopentyl-3-(2-methoxyethyl)-4-oxo-3,4-dihydroquinazolin-6-yl)urea] | 10.8 |

Same assay, conditions: western blot, 24 hours, 10 μM screening or 50 nM-5 μM dose dependent

| Compound | ATGL level in HepG2 cells |
| --- | --- |
| COCCn1c(C(=O)N2CCN(C)CC2)nc2ccc(NC(=O)Nc3cccc(C(C)=O)c3)cc2c1=O [Compound 333a, 1-(3-acetylphenyl)-3-(3-(2-methoxyethyl)-2-(4-methylpiperazine-1-carbonyl)-4-oxo-3,4-dihydroquinazolin-6-yl)urea] | increased ATGL level |
| COCCn1cnc2ccc(NC(=O)N(O)c3cccc(C(C)=O)c3)cc2c1=O [Compound 308, 1-(3-acetylphenyl)-1-hydroxy-3-(3-(2-methoxyethyl)-4-oxo-3,4-dihydroquinazolin-6-yl)urea] | increased ATGL level |
| COCCn1c(-c2cnccn2)nc2ccc(NC(=O)Nc3cccc(C(C)=O)c3)cc2c1=O [Compound 223, 1-(3-acetylphenyl)-3-(3-(2-methoxyethyl)-4-oxo-2-(pyrazin-2-yl)-3,4-dihydroquinazolin-6-yl)urea] | increased ATGL level |
| COCCn1c(C2CCCC2)nc2ccc(NC(=O)Nc3cccc(C(C)=O)c3)cc2c1=O [Compound 127, 1-(3-acetylphenyl)-3-(2-cyclopentyl-3-(2-methoxyethyl)-4-oxo-3,4-dihydroquinazolin-6-yl)urea] | increased ATGL level |
